Data published in patent publication EP4088722A1, “PHARMACEUTICAL COMPOSITIONS, USES THEREOF AND METHODS FOR TREATMENT OF GENETIC DISEASES CAUSED BY INTRONIC SPLICE-ACCEPTOR SITE MUTATIONS” (priority 2021, dated 2022).
Blank lines part the entries; values can stand above or below the molecule they belong to.

What was measured:
[1] = tested on: AGA-luciferase minigene constructs (c.128-2A>G); assay: AGA luciferase minigene splicing assay in AGU patient fibroblasts; format: cell-based, human; details: 24 h; for luciferase activity: 7.5 mM; for luciferase readout: increasing amounts
[2] = tested on: AGA minigene construct without luciferase (c.128-2A>G); assay: cells; format: cell-based, human; details: 24 h; for changes in the splicing (correctly spliced product): 7.5 mM, qRT-PCR; for fold induction at 7500 µM: Homo sapiens, HEK-293T, read-out: increase in the correctly spliced product (exons 2 and 3)
Procedure: (§1) For qPCRs, total RNA was isolated with peqGOLD TriFast™ (VWR, Darmstadt, Germany) and included a DNAse step. Total RNA (1-3 µg) were reverse transcribed with 150 fmol oligo(dT) primers and M-MuLV reverse transcriptase (NEB, Frankfurt, Germany) in a total volume of 45 µL. Real-time quantitative PCRs were performed using the CFX Connect Real-Time PCR Detection System (Bio-Rad, Munich, Germany). Annealing temperature was 60°C for all primers. The reactions were done as duplicates with 0.8 µL cDNA in a total volume of 10 µL using iTaq-TMUniversal SYBR Green Supermix (Bio-Rad). PCR products were quantified with the ACt-method. For normalization, the mean of the reference genes B2M, Rpl13a, Ywhaz and TBP was used. Table 2. Sequences of primers used for the quantitative real-time PCR.
RNA was isolated from the cells, reverse transcribed to cDNA, and a qRT-PCR with a fwd primer residing in exon 2 and a reverse primer in the plasmid vector (3'-untranslated region of the resulting RNA) was performed. Thus, amplification of a PCR product of 271 bp is only observed when both exons 2 and 3 are present in the mRNA.

[3] = tested on: AGA minigene containing the splice variant (c.128-2A>G); assay: AGA minigene luciferase splicing assay in AGA knockout HEK293T cells; details: for splicing of the AGA minigene / variant (summary statement): overall statement in the description, across the AGA assays
AGA mRNA = assay: qRT-PCR of AGA mRNA in control fibroblasts; format: cell-based, human; details: 7.5 mM caffeine, 24 h
Procedure: (§2) Fibroblasts were seeded into 6-well plates and treated with the following compounds: caffeine, theophylline, theobromine, pentoxifylline, doxofylline(1-7.5 mM, solvent H2O; TCI, Eschborn, Germany), luteolin (10-50 µM, solvent DMSO; Biozol, Eching, Germany) or kinetin (10-100 µM, solvent DMSO; TCI, Eschborn,Germany) for 24 h (RNA) or 48 h (protein lysate). Cells were harvested in lysis buffer (50 mM Tris pH 7.4, 150 mM NaCl, 2 mM EDTA, 1% NP-40), supplemented with protease inhibitor cocktail (Sigma-Aldrich). Protein concentrations in the lysates were determined according to the Bradford method.
as §1

[4] = tested on: endogenous AGA mRNA with exon 2; format: cell-based, human; details: 24 h, patient fibroblasts
Procedure: as §2, §1

AGA activity = AGA activity in patient fibroblasts, colorimetric Morgan-Elson assay with AADG as substrate; format: cell-based, human; details: 25 µM luteolin, 48 h
Procedure: as §2
In most experiments, AGA activity was measured fluorimetrically as described in Banning, A.; et al. Sci Rep 2016, 6, 37583. […] In short, 12.5 µl of cell lysate were mixed with 100 nmol AADG, 3.35 µl 0,5 M KH2PO4, pH8, and 0.9% NaCl to reach a total volume of 25 µl. […] The liberated N-acetylglucosamine was measured at 585 nm. […]
Due to these encouraging data, the AGA activity was measured in patient fibroblasts treated with 25 µM luteolin (Figure 10b). Since luteolin acts as a quencher in our standard fluorescence-based AGA activity measurement [Schoefer, L.; Braune, A., FEMS Microbiol Lett 2001, 204, 277-280, and our own observations], we used a colorimetric activity assay [Tikkanen, R.; et al., DNA Cell Biol 1995, 14, 305-312] that is less sensitive but not subject to quenching by luteolin.

[5] = 7.5 mM, 24 h, compared to untreated cells

luciferase activity [1]: failed to do so
Structure (SMILES): Cn1c(=O)c2c(ncn2CC2OCCO2)n(C)c1=O [doxofylline, 7-(1,3-dioxolan-2-ylmethyl)-1,3-dimethylpurine-2,6-dione]
changes in the splicing (correctly spliced product) [2]: did not produce significant changes in the splicing
luciferase activity [3, 5]: significantly increased luciferase activity
splicing of the AGA minigene / variant (summary statement) [3]: consistently failed to exert any significant effects

Structure (SMILES): Cn1c(=O)c2c(ncn2C)n(C)c1=O [caffeine, 1,3,7-trimethylxanthine]
luciferase readout [1]: significant, dose dependent increase in the luciferase readout
AGA mRNA (AGA mRNA): increase in the AGA mRNA in control fibroblasts
fold induction at 7500 µM [2]: ~20
endogenous AGA mRNA splicing products that contain exons 2 and 3 ([4]; 7.5 mM caffeine): significantly increased to a level that corresponds to the untreated control fibroblasts
luciferase activity [3, 5]: highest increase

Structure (SMILES): O=c1cc(-c2ccc(O)c(O)c2)oc2cc(O)cc(O)c12 [luteolin, 3',4',5,7-tetrahydroxyflavone]
AGA activity (AGA activity): significant increase in the AGA activity
fold induction at 25 µM ([4]; Homo sapiens, Fibroblast, luteolin 25 µM, read-out: increase of endogenous AGA mRNA with exon 2): ~2.5
increase in luciferase activity ([3]; 25 µM luteolin, 24 h, most efficient concentration): 5-6 fold
luciferase activity ([3]; all luteolin concentrations, 10 µM - 50 µM, 24 h): significant increase in luciferase activity
luciferase expression in Western blot ([3]; lysates of the luteolin/kinetin luciferase assay): strong luciferase expression

luciferase activity [1]: failed to do so
Structure (SMILES): Cn1cnc2c1c(=O)[nH]c(=O)n2C [theobromine, 3,7-dimethylxanthine]
changes in the splicing (correctly spliced product) [2]: did not produce significant changes in the splicing
luciferase activity ([3]; four concentrations 1 mM - 7.5 mM, 24 h, compared to untreated cells): non-significant changes

Structure (SMILES): c1coc(CNc2ncnc3[nH]cnc23)c1 [kinetin]
endogenous AGA mRNA with exon 2 ([4]; kinetin 50 µM): no significant increase
luciferase activity ([3]; kinetin, lower concentrations (from 10 µM, below 100 µM), 24 h): only minor effects
splicing of the AGA minigene / variant (summary statement) [3]: no systematic positive effect

Structure (SMILES): Cn1c(=O)c2[nH]cnc2n(C)c1=O [theophylline, 1,3-dimethylxanthine]
luciferase readout [1]: significant, dose dependent increase in the luciferase readout
fold induction at 7500 µM [2]: 5 to 10
luciferase activity [3, 5]: significantly increased luciferase activity

Structure (SMILES): CC(=O)CCCCn1c(=O)c2c(ncn2C)n(C)c1=O [pentoxifylline, 3,7-dimethyl-1-(5-oxohexyl) xanthine]
luciferase activity [1]: significantly increased the luciferase activity
fold induction at 7500 µM [2]: 5 to 10
luciferase activity [3, 5]: significantly increased luciferase activity
